Assays:
[1] = tested on: mammalian cells such as mCRPCs, TAMs, MSCs, and CAFs; details: all cells, including mammalian cells; read-out: LC50 (the source's name); cited from earlier work
[2] = in vivo, 40 mg/kg
Protocol: (§2) Column: Luna 2.5u C18, 100 mm ×2.5 mm (Phenomenex 00D-4446-B0). Mobile phase: A = 0.5% acetonitrile/H2O/0.1% formic acid; B= 95% acetonitrile/H2O/0.1% formic acid; Flow = 150 µL/min.

[3] = tested on: panel of benign and malignant cells; assay: MTT assay, potency of niclosamide against a panel of cells; assay type: cell-based; details: all cells tested (FIG. 3A)
Description: FIGS. 3A-3D show characterization data for a compound disclosed herein (Compound 1).

[4] = tested on: SkCaP-1 (human PCa xenograft); assay: SkCaP-1 human PCa xenograft in NSG mice; assay type: in vivo; details: 30 mg/kg i.p. daily vs DMSO control (FIG. 4)
Protocol: Intact male NSG mice (3-4 per group) bearing SkCaP-1 (human PCa xenograft) were treated with 30 mg/kg Compound 4 (a tasquinimod compound) i.p. daily, or a control (DMSO).

FAP [5] = biological target: T1, FAP (Homo sapiens, UniProt Q12884); assay: FAP-dependent activation of Compound 4 in vitro (HPLC); assay type: biochemical; design: purchased R&D Systems; details: buffer +/- rhFAP (20 nM) overnight (~16 hrs), 37° C., HPLC (FIG. 10)
T1 sequence (Q12884 1-760): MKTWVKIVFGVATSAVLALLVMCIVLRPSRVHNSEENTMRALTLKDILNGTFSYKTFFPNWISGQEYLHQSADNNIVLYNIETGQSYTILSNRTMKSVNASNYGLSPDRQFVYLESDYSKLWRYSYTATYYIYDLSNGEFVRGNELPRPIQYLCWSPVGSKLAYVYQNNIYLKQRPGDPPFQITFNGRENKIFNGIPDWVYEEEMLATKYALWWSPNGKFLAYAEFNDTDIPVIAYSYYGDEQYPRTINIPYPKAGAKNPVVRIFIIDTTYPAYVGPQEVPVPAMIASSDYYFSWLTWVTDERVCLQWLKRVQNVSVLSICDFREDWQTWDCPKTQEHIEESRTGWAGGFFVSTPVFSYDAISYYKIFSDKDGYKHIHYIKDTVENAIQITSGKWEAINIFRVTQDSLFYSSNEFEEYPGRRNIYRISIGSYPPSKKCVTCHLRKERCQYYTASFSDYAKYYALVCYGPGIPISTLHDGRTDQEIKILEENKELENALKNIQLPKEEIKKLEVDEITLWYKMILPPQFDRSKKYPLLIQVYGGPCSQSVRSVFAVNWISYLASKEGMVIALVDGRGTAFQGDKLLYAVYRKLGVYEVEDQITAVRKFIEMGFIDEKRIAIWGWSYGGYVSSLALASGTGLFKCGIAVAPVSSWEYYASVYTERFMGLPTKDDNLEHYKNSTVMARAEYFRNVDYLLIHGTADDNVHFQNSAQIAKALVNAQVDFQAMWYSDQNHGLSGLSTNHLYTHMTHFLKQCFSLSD
Protocol: Compound 4 was incubated in buffer +/- rhFAP (20 nM) overnight (~16 hrs), mixing at 37° C. Aliquots taken at indicated time points and the presence of Compound 4 (prodrug) and Tasquinimod (TasQ) were quantified via HPLC.

PREP = biological target: T2, PREP (Homo sapiens, UniProt P48147); assay: LC-MS assay of niclosamide production from prodrug with PREP; assay type: biochemical; details: 24 hrs
T2 construct: purchased R&D Systems
T2 sequence (P48147 1-710): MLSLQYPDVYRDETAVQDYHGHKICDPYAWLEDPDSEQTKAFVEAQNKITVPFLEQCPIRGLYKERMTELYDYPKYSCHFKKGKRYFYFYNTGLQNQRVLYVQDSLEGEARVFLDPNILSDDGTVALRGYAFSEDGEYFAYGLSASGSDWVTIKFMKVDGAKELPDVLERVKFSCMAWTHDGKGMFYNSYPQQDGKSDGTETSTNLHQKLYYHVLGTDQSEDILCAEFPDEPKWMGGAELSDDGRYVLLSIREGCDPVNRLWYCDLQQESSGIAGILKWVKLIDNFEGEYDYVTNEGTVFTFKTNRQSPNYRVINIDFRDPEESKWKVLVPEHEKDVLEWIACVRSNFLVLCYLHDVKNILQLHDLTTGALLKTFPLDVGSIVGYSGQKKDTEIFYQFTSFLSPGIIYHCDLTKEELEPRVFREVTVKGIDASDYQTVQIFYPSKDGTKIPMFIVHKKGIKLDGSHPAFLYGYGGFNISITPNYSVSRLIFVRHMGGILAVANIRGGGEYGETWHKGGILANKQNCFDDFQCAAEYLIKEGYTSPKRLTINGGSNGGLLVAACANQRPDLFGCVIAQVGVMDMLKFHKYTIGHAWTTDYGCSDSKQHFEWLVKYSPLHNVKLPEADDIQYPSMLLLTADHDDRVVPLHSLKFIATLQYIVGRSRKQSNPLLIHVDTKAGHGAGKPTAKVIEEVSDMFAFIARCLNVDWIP
Protocol: (§1) In vitro Characterization of Enzymatic Activation Kinetics and FAP-specific Cellular UptakelCytotoxicity: Kinetics of compound activation by FAP is performed as previously described (Aggarwal et al. Biochemistry 47, 1076-1086 (2008); Denmeade et al. Sci TranslMed 4, 140ra186 (2012)). Briefly, increasing concentrations of the test compound (0-10 µM) are incubated with rhFAP, rhDPPIV, or rhPREP [20 nM] (R&D Systems) at 37° C. while shaking. Aliquots are taken to determine concentrations of the test compound and active drug compound at time points ranging from 0-24 hrs using the LCMS method described above in Example 4. Kinetic constants (Km and kcat) are calculated on the basis of the rate of hydrolysis (v) during the linear phase using Michaelis-Menten plots (v vs [S]) with nonlinear regression analysis. Cellular uptake in the presence or absence of rhFAP is determined in cell lysates using the same methodology. Cytotoxicity is determined via MTT in the presence or absence of rhFAP and/or a FAP-specific inhibitor (Jansen et al. J Med Chem 57, 3053-3074 (2014).

Myc-CaP-CR tumors = assay: Abiraterone-resistant CRPC tumor model (Myc-CaP-CR) in vivo
Protocol: Animals were treated with either abiraterone at 10 mg/kg by daily oral gavage alone or together with Compound 1 at 50 mg/kg IV on d0 and d4. Toxicity was monitored by measuring body weight and body score (i.e., appearance, lethargy, etc.).

DPPIV = biological target: T3, DPPIV (Homo sapiens, UniProt P27487); assay: LC-MS assay of niclosamide production from prodrug with DPPIV; assay type: biochemical; details: 24 hrs
T3 construct: purchased R&D Systems
Protocol: as §1

FAP [6] = biological target: T1, FAP; assay: LC-MS assay of FAP-dependent production of niclosamide from prodrug; assay type: biochemical; design: purchased R&D Systems
Protocol: as §1

FAP [7] = biological target: T1, FAP; assay: Kinetics of FAP-dependent activation in vitro +/- BSA (HPLC); assay type: biochemical
Protocol: Compound 1 was incubated in Buffer (50 mM Tris-HCl, pH 7.4; 150 mM NaCI) +/-0.4% BSA in glass vials, mixing at 37° C. Aliquots were taken at indicated time points and the presence of Compound 1 (prodrug) and Niclosamide (active compound) were quantified via HPLC.

LNCaP cells = assay: Seahorse XF Cell Mito Stress Test; assay type: cell-based
Protocol: A mitochondrial stress test assay was performed using the Agilent Seahorse XF Cell Mito Stress Test Kit (catalog no. 103015-100), a widely-used assay for assessing mitochondrial function. Compound 1 or niclosamide (1 µM) was incubated overnight at 37° C. shaking, with or without FAP (20 nM) in Seahorse Media. This mixture was added to LNCaP cells (60 k cells) the next day, immediately prior to starting the assay (0.5 µM final concentration).

CWR22-H tumors = assay: Castration-resistant CWR22-H tumors in castrated male NSG mice; assay type: in vivo
Protocol: Castrated male NSG mice were inoculated with castration-resistant CWR22-H tumors in 50% Matrigel. When tumors reached ~0.2 cc, treatment with Compound 1 (40 mg/kg) via intraperitoneal (I.P.) injection was initiated. Tumor volumes and body weights were monitored 2x/wk. […] Treatment was well-tolerated as documented by weight loss of <20%.

[8] = Pharmacokinetics: plasma, liver, kidney, smooth muscle levels after Compound 1 dosing
Protocol: as §2

T3 sequence (P27487 whole entry): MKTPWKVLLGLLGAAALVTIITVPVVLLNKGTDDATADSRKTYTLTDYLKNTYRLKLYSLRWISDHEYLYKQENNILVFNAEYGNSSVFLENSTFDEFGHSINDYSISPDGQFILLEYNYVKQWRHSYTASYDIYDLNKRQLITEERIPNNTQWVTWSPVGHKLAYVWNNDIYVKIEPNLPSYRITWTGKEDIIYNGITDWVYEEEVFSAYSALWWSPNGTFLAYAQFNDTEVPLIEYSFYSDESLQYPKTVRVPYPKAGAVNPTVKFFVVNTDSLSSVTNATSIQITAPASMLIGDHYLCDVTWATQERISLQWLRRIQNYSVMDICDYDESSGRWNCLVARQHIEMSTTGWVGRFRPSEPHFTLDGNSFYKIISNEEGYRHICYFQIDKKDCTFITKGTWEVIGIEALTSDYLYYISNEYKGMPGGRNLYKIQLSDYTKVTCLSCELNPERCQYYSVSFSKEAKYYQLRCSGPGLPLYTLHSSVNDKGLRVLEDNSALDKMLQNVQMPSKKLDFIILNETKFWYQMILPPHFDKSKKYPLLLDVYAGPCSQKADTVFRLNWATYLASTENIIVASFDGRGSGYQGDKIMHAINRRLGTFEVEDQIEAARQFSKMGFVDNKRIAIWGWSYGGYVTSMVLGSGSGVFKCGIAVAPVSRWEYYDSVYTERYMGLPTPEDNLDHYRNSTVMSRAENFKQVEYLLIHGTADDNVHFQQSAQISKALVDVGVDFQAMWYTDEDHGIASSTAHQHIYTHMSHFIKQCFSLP

O=C(Nc1ccc([N+](=O)[O-])cc1Cl)c1cc(Cl)ccc1O [Niclosamide, niclosamide]
CC50 [1]: < 1000 nM
niclosamide in liver as % of Compound 1 concentrations [2]: 25-50%
niclosamide in plasma as % of Compound 1 dose [2]: < 10%
niclosamide in smooth muscle as % based on liver concentrations [2]: < 1%
niclosamide in smooth muscle as % of administered dose based on plasma concentrations [2]: 5-10%
niclosamide level in plasma [2]: < 1 µM
niclosamide level in smooth muscle [2]: < 1 µM
IC50 [3]: < 500 nM

COc1cccc2c1c(OCc1ccc(NC(=O)C3CC(F)(F)CN3C(=O)CNC(=O)c3ccnc4ccccc34)cc1)c(C(=O)N(C)c1ccc(C(F)(F)F)cc1)c(=O)n2C (stereo not drawn) [Compound 4]
tumor growth (tumor volume) [4]: decreases tumor growth compared to the control
FAP-dependent activation to tasquinimod (FAP [5]): confirm FAP-dependent activation

O=C(Nc1ccc([N+](=O)[O-])cc1Cl)c1cc(Cl)ccc1OCc1ccc(NC(=O)C2CC(F)(F)CN2C(=O)CNC(=O)c2ccnc3ccccc23)cc1 (stereo not drawn) [Compound 1]
production of active niclosamide (PREP): no production observed
toxicity (body weight and body score) (Myc-CaP-CR tumors; Compound 1 50 mg/kg IV d0 and d4 together with abiraterone 10 mg/kg (FIG. 3D)): no evidence of toxicity
anti-tumor efficacy (Myc-CaP-CR tumors; Compound 1 50 mg/kg IV d0 and d4 together with abiraterone 10 mg/kg daily oral gavage (FIG. 3C)): significant anti-tumor efficacy
production of active niclosamide (DPPIV): no production observed
production of active niclosamide (FAP [6]; absence of enzyme, 24 hrs): no production observed
increase in active niclosamide (FAP [6]; with FAP, over 24 hrs (FIG. 3B)): ~ 20 fold
effect of BSA on production of the active compound (FAP [7]; 0.4% BSA): BSA inhibits production of the active compound
prodrug and active compound over time (FAP [7]; buffer pH 7.4, 37° C., HPLC (FIG. 5)): time-dependent increase in the active compound and concomitant decrease in the prodrug over time
baseline ECAR (LNCaP cells; activated by FAP): already at maximum
oxygen consumption rate (OCR), mitochondrial uncoupling (LNCaP cells; activated by FAP (20 nM) overnight, 0.5 µM final (FIG. 6)): uncouples mitochondria
extracellular acidification rate (ECAR) on oligomycin addition (LNCaP cells; activated by FAP (FIG. 7)): does not change with the addition of oligomycin
non-mitochondrial respiration (LNCaP cells; activated by FAP, after rotenone and antimycin A): no change in non-mitochondrial respiration
weight loss (CWR22-H tumors; 40 mg/kg daily IP): < 20%
anti-tumor activity (tumor volume) (CWR22-H tumors; 40 mg/kg daily IP (FIG. 8)): Anti-tumor activity was observed
plasma level as % of the IV dose ([8]; 40 mg/kg IP): ~ 50%
kidney level as % of the IV dose ([8]; 40 mg/kg IP, at ~4 hrs): ~ 30%
liver level as % of the IV dose ([8]; 40 mg/kg IP, at ~4 hrs): ~ 50%
converted to niclosamide (kidney) ([8]; Compound 1 administered IV or IP): < 10%
stability of the prodrug as a systemic therapy ([8]; in vivo, from tissue niclosamide levels): good stability
concentration at 1 hr ([8]; kidney, intravenous, 40 mg/kg): ~50 µM
concentration at 1 hr ([8]; kidney, oral, 40 mg/kg): ~1 µM
Kp at 1 hr ([8]; liver, intravenous, 40 mg/kg): 10 to 15
concentration at 1 hr ([8]; liver, intravenous, 40 mg/kg): ~100 µM
concentration at 1 hr ([8]; liver, oral, 40 mg/kg): ~10 µM
bioavailability ([8]; liver, po, 40 mg/kg): ~10%
half-life ([8]; plasma, intravenous, 40 mg/kg): 180 to 240 min
Cmax ([8]; plasma, iv, 40 mg/kg): ~7 µM
Cmax ([8]; plasma, po, 40 mg/kg): ~0.4 µM
bioavailability ([8]; plasma, po, 40 mg/kg): 5 to 10%

Source: patent US20230331694A1, “FAP-ACTIVATED COMPOUNDS FOR TREATMENT OF CANCER” (The Johns Hopkins University, priority 2020, published 2023)
